Measured values reported in patent publication US20120252853A1, “Positive allosteric modulators of nicotinic acetylcholine receptor” (H. Lundbeck A/S, priority 2011, published 2012).

Key:
[1] = biological target: human α7 receptor (Homo sapiens, UniProt P36544); experiment: α7 NNR flux assay (FDSS Ca assay); assay type: cell-based; details: positive allosteric modulation; rat GH4C1 cell line stably expressing human α7; acetylcholine 20 μM; % modulation relative to PNU-120596 set to 100%
How it was run: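 GH4C1 rat cells stably expressing human α7, loaded with Calcium-4 dye plus 2.5 mM probenecid in HBSS/20 mM HEPES pH 7.4, 3 mM CaCl2. Compounds (0.039–20 μM final) preincubated ~95 s before 20 μM acetylcholine (~EC100); Ex480/Em540 fluorescence on FDSS. Values are % modulation, with 3 μM PNU-120596 set to 100%.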

[2] = biological target: T1, human KCNQ2 (Homo sapiens, UniProt O43526); experiment: 86Rb flux in KCNQ2 expressing cells; assay type: cell-based; details: KCNQ2 opening; for EC50: 86Rb efflux, CHO-K1 cells stably transfected with human KCNQ2; for Emax: Max effect determined in % of the effect of 30 mM KCl
T1 construct: expressed in transfected cells
Description: Chinese hamster ovary cells (CHO-K1) were stably transfected with human KCNQ2 inserted into the pCl-neo vector (Promega). Cells were plated at 2×10^5 cells/ml in 96-well plates in 100 μl media (MEM Alpha media, 10% FBS, 1% P/S, 1% L-Glu, and 1 mg/ml G418). At the time of plating the cells were furthermore loaded with 1 μCi/ml 86Rb over-night. On the subsequent day, the cells were washed with 3×50 μl assay buffer (HBSS+10 mM HEPES, pH 7.4) and incubated in 50 μl buffer with retigabine for 30 minutes at 37° C. Following this preincubation, the cell membrane was depolarized for 30 minutes at 37° C. with 15 mM KCl (final concentration) in assay buffer supplemented with the appropriate amount of compound to maintain drug concentration. The supernatant was removed and placed in pony-vials with 0.5 ml scintillation liquid and counted. The dose-dependent effect of the investigated compounds on the efflux of 86Rb through the hKCNQ2 channels were calculated according to the four parameter logistic equation: Y=Bottom+(Top-Bottom)/(1+10̂((LogEC50-X)*HillSlope)), where X is the logarithm of concentration, Y is the response, and HillSlope is the hill coefficient.
A representative selection of compounds of the invention were tested in the assay in addition to 6 comparative examples wherein 0 has been substituted with a 6-membered ring comprising up to two N atoms. Comparative 1-4 has been disclosed in WO 2009/127678 or WO 2009/127679 and comparative 5-6 are close analogues.

[3] = tested on: α7 nACh receptors expressed in Xenopus oocytes; experiment: α7 NNR oocyte assay (electrophysiological recordings); assay type: cell-based, human or rat; details: tested subsequently in the oocyte assay
Description: Expression of α7 nACh Receptors in Xenopus oocytes.
Oocytes were surgically removed from mature female Xenepus laevis anaesthetized in 0.4% MS-222 for 10-15 min. The oocytes were then digested at room temperature for 2-3 hours with 0.5 mg/ml collagenase (type IA Sigma-Aldrich) in OR2 buffer (82.5 mM NaCl, 2.0 mM KCl, 1.0 mM MgCl2 and 5.0 mM HEPES, pH 7.6). Oocytes avoid of the follicle layer were selected and incubated for 24 hours in Modified Barth's Saline buffer (88 mM NaCl, 1 mM […], 15 mM HEPES, 2.4 mM NaHCO3, 0.41 mM CaCl2, 0.82 mM MgSO4, 0.3 mM Ca(NO3)2) supplemented with 2 mM sodium pyruvate, 0.1 μg/l penicillin and 0.1 μg/l streptomycin. Stage 1V oocytes were identified and injected with 4.2-48 nl of nuclease free water containing 0.1-1.2 ng of cRNA coding for human α7 nACh receptors or 3.0-32 ng of cRNA coding for rat α7 nACh receptors and incubated at 18° C. for 1-10 days when they were used for electrophysiological recordings.
Electrophysiological Recordings of α7 nACh Receptors Expressed in Oocytes.
Oocytes were used for electrophysiological recordings 1-10 days after injection. Oocytes were placed in a 1 ml bath and perfused with Ringer buffer (115 mM NaCl, 2.5 mM KCl, 10 mM HEPES, 1.8 mM CaCl2, 0.1 mM MgCl2, pH 7.5). Cells were impaled with agar plugged 0.2-1 MΩ electrodes containing 3 M KCl and voltage clamped at −90 mV by a GeneClamp 500B amplifier. The experiments were performed at room temperature. Oocytes were continuously perfused with Ringer buffer and the drugs were applied in the perfusate. ACh (30 μM) applied for 30 sec were used as the standard agonist for activation of the α7 nACh receptors. In the standard screening set-up the new test compound (10 μM or 30 μM) were applied for 1 min of pre-application allowing for evaluation of agonistic activity followed by 30 sec of co-application with ACh (30 μM) allowing for evaluation of PAM activity. […] The drug induced effects on both the peak response and the total charge (AUC) response were calculated thus giving the effect of drug induced PAM activity as fold modulation of the control response. […]

human α7 receptor, sequence (P36544 23-502): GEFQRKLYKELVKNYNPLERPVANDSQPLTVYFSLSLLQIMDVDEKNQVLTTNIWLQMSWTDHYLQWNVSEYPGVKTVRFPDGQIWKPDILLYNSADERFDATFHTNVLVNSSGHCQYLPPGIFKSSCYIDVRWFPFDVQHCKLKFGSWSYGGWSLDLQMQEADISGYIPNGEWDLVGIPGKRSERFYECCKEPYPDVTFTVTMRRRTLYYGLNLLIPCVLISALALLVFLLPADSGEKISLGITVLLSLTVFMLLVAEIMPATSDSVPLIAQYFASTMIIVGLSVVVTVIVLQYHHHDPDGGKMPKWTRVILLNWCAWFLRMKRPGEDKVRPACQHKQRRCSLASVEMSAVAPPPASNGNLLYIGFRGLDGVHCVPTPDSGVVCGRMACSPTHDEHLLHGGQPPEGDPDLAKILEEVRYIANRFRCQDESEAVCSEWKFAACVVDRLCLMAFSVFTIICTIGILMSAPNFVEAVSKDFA

SMILES	EC50 [1]	EC50 [2]	Emax [2]	NNR PAM activity in the oocyte assay compared with the flux assay [3]
Cc1cc(C(=O)NC(C)c2ccc3[nH]c(C(F)(F)F)cc3c2)on1 (single isomer, unassigned) [Compound 96, 3-methyl-N-[1-[2-(trifluoromethyl)-1H-indol-5-yl]ethyl]isoxazole-5-carboxamide]	4.2 µM	> 50 µM	5.4%	–
Cc1cc2cc(CNC(=O)c3occc3C)ccc2[nH]1 [Compound 1, 3-methyl-N-[(2-methyl-1H-indol-5-yl)methyl]furan-2-carboxamide]	2.7 µM	> 50 µM	2%	–
Cc1cc2cc(CNC(=O)c3ccc(C)s3)ccc2[nH]1 [Compound 24, 5-methyl-N-[(2-methyl-1H-indol-5-yl)methyl]thiophene-2-carboxamide]	0.34 µM	> 50 µM	5%	–
Cc1cc(C(=O)NCc2ccc3[nH]c(C)cc3c2)on1 [Compound 28, 3-methyl-N-[(2-methyl-1H-indol-5-yl)methyl]isoxazole-5-carboxamide]	2.97 µM	–	5.7%	–
Cc1cc2cc(CNC(=O)c3cnn(C)c3)ccc2[nH]1 [Compound 29, 1-methyl-N-[(2-methyl-1H-indol-5-yl)methyl]pyrazole-4-carboxamide]	9.25 µM	> 50 µM	4%	–
Cn1cc(C(=O)NCc2ccc3[nH]c(C(F)(F)F)cc3c2)cn1 [Compound 30, 1-methyl-N-[[2-(trifluoromethyl)-1H-indol-5-yl]methyl]pyrazole-4-carboxamide]	5.8 µM	> 50 µM	9.6%	–
O=C(NCc1ccc2[nH]c(C(F)(F)F)cc2c1)c1ccno1 [Compound 31, N-[[2-(trifluoromethyl)-1H-indol-5-yl]methyl]isoxazole-5-carboxamide]	–	> 50 µM	4.8%	–
Cc1cc2cc(CNC(=O)c3cc(C(C)C)no3)ccc2[nH]1 [Compound 34, 3-isopropyl-N-[(2-methyl-1H-indol-5-yl)methyl]isoxazole-5-carboxamide]	0.9 µM	–	1%	significantly better NNR PAM activity
Cc1cc2cc(CNC(=O)c3cnc(C)s3)ccc2[nH]1 [Compound 35, 2-methyl-N-[(2-methyl-1H-indol-5-yl)methyl]thiazole-5-carboxamide]	2.45 µM	–	7.5%	–
Cc1cc2cc(CNC(=O)c3cnn(CC(F)(F)F)c3)ccc2[nH]1 [Compound 36, N-[(2-methyl-1H-indol-5-yl)methyl]-1-(2,2,2-trifluoroethyl)pyrazole-4-carboxamide]	1.49 µM	–	3.3%	–
O=C(NCc1ccc2[nH]c(C(F)(F)F)cc2c1)c1cnn(CC(F)(F)F)c1 [Compound 40, 1-(2,2,2-trifluoroethyl)-N-[[2-(trifluoromethyl)-1H-indol-5-yl]methyl]pyrazole-4-carboxamide]	3.5 µM	> 50 µM	2.4%	–
Cc1cc(C(=O)N[C@H](C)c2ccc3[nH]c(C)cc3c2)sn1 [Compound 47, 3-methyl-N-[(1R)-1-(2-methyl-1H-indol-5-yl)ethyl]isothiazole-5-carboxamide]	> 20 µM	–	–	significantly better NNR PAM activity
Cc1cc(C(=O)N[C@H](C)c2ccc3[nH]c(C)cc3c2)on1 [Compound 61, 3-methyl-N-[(1R)-1-(2-methyl-1H-indol-5-yl)ethyl]isoxazole-5-carboxamide]	2.33 µM	–	-5%	–
Cc1cc(C(=O)NCc2ccc3[nH]c(C(F)(F)F)cc3c2)on1 [Compound 65, 3-methyl-N-[[2-(trifluromethyl)-1H-indol-5-yl]methyl]isoxazole-5-carboxamide]	5 µM	–	8.1%	–
Cc1ncc(C(=O)NCc2ccc3[nH]c(C(F)(F)F)cc3c2)s1 [Compound 66, 2-methyl-N-[[2-(trifluoromethyl)-1H-indol-5-yl]methyl]thiazole-5-carboxamide]	8.8 µM	> 50 µM	3.7%	–
CC(C)c1cc(C(=O)NCc2ccc3[nH]c(C(F)(F)F)cc3c2)on1 [Compound 67, 3-isopropyl-N-[[2-(trifluoromethyl)-1H-indol-5-yl]methyl]isoxazole-5-carboxamide]	6.1 µM	> 50 µM	5.3%	–
Cc1cc2cc([C@@H](C)NC(=O)c3cnn(CC(F)(F)F)c3)ccc2[nH]1 [Compound 86, N-[(1R)-1-(2-methyl-1H-indol-5-yl)ethyl]-1-(2,2,2-trifluoroethyl)pyrazole-4-carboxamide]	> 20 µM	–	–	significantly better NNR PAM activity
O=C(NCc1ccc2[nH]c(C(F)(F)F)cc2c1)c1ncc(C(F)(F)F)cn1 [Compound C1, 5-Trifluoromethyl-pyrimidine-2-carboxylic acid (2-trifluoromethyl-1H-indol-5-ylmethyl)amide, reference compound]	–	> 50 µM	34%	–
O=C(NCc1ccc2[nH]c(C(F)(F)F)cc2c1)c1ccc(-c2ccccc2)nc1 [Compound C2, 6-Phenyl-N-(2-trifluoromethyl-1H-indol-5-ylmethyl)-nicotinamide, reference compound]	–	> 50 µM	31%	–
O=C(NCc1ccc2[nH]c(C(F)(F)F)cc2c1)c1ccc(C(F)(F)F)nc1 [Compound C3, 6-Trifluoromethyl-N-(2-trifluoromethyl-1H-indol-5-ylmethyl)-nicotinamide, reference compound]	–	17 µM	46%	–
N#Cc1ccc(C(=O)NCc2ccc3[nH]c(C(F)(F)F)cc3c2)cn1 [Compound C4, 6-Cyano-N-(2-trifluoromethyl-1H-indol-5-ylmethyl)-nicotinamide, reference compound]	–	> 50 µM	15%	–
COc1ccc(C(=O)NCc2ccc3[nH]c(C)cc3c2)cc1 [Compound C5, 4-Methoxy-N-(2-methyl-1H-indol-5-ylmethyl)-benzamide, reference compound]	–	> 50 µM	17%	–
Cc1cc2cc(CNC(=O)c3ccccc3F)ccc2n1C [Compound C6, N-(1,2-Dimethyl-1H-indol-5-ylmethyl)-2-fluoro-benzamide, reference compound]	–	> 50 µM	13%	–
